Experimental data: patent publication US7598258B2, “Quinoline derivatives and quinazoline derivatives inhibiting autophosphorylation of macrophage colony stimulating factor receptor” (Kirin Beer Kabushiki Kaisha, priority 2002, dated 2009)

Biological target: T1, Human KDR (Homo sapiens, UniProt P35968)
T1 construct: expressed in transfected cells; host or cells: NIH3T3 cells (mouse fibroblasts)
Assay: Inhibition of KDR phosphorylation in human KDR-transfected NIH3T3 cells (ELISA);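 on Selection ratio (KDR phosphorylation IC50 / c-fms phosphorylation IC50): class 2 means ratio of 10 or more and class 3 means 50 or more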
Type: cell-based
Details: for Selection ratio (KDR phosphorylation IC50 / c-fms phosphorylation IC50): class 0-3; for IC50: human KDR-transfected NIH3T3 cells, VEGF 100 ng/ml, ELISA, read-out: KDR phosphorylation 50% inhibitory concentration (IC50)
Summary of the method: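 NIH3T3 cells transfected with human KDR, in 0.1% FCS medium, treated with compound 1 hr at 37° C, then stimulated with VEGF 100 ng/ml for 2 min. Lysate KDR phosphorylation measured by anti-phosphotyrosine capture/anti-KDR ELISA (A450); IC50 from inhibition normalized between VEGF-stimulated and unstimulated wells.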

T1 sequence (P35968 20-1356): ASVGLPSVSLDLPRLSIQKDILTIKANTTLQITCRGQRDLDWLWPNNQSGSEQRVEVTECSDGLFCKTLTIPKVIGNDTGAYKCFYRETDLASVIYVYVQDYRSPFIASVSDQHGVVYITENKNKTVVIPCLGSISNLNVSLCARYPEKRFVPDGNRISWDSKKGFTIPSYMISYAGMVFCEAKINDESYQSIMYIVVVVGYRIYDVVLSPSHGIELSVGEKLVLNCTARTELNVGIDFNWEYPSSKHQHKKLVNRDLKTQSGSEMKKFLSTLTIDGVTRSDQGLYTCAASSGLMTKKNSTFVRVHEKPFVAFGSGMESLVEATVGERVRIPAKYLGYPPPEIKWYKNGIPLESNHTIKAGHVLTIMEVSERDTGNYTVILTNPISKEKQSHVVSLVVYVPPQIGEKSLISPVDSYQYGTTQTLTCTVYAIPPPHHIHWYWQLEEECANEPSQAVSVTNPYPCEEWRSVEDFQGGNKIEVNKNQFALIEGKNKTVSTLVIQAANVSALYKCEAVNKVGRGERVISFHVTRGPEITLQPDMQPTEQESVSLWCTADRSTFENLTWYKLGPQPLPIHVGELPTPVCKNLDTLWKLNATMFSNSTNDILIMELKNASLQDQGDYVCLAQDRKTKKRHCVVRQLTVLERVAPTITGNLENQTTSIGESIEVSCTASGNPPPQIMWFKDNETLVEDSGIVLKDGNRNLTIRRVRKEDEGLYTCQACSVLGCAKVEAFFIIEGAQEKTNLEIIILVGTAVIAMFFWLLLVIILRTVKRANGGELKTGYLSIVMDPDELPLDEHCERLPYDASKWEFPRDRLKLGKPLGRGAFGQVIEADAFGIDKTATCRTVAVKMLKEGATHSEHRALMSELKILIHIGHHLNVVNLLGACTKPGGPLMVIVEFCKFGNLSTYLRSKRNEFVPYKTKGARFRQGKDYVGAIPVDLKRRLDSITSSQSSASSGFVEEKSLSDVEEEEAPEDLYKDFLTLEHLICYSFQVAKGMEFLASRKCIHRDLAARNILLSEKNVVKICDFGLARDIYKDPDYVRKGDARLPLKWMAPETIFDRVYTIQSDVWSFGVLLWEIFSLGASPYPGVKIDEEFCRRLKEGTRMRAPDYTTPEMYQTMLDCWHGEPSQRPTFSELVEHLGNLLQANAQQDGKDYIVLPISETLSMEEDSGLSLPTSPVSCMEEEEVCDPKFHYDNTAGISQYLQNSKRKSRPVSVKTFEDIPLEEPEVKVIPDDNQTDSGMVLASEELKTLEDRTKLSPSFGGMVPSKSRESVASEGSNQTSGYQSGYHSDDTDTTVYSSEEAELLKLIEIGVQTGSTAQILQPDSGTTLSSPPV

Row | SMILES | IC50 [nM] | Selection ratio (KDR phosphorylation IC50 / c-fms phosphorylation IC50)
1 | COc1cc2nccc(Oc3ccc(NC(=O)N[C@@H](C)c4ccc(F)cc4)cc3)c2cc1OC [Example 2, N-{4-[(6,7-Dimethoxy-4-quinolyl)oxy]phenyl}-N′-[(1S)-1-(4-fluorophenyl)ethyl]urea] | 32.3 | 2 (when the value was 10 or more)
2 | COc1cc2nccc(Oc3ccc(NC(=O)N[C@H](C)c4cccc(Br)c4)cc3)c2cc1OC [Example 45, N-[(1R)-1-(3-Bromophenyl)ethyl]-N′-{4-[(6,7-dimethoxy-4-quinolyl)oxy]phenyl}urea] | 2.5 | 0 (KDR phosphorylation 50% inhibitory concentration [μM]/c-fms phosphorylation 50% inhibitory concentration [μM] was less than 5)
3 | COc1cc2nccc(Oc3ccc(NC(=O)N[C@@H](C)c4cccc(Br)c4)cc3)c2cc1OC [Example 46, N-[(1S)-1-(3-Bromophenyl)ethyl]-N′-{4-[(6,7-dimethoxy-4-quinolyl)oxy]phenyl}urea] | 507 | 3 (when the value was 50 or more)
4 | COc1cccc([C@H](C)NC(=O)Nc2ccc(Oc3ccnc4cc(OC)c(OC)cc34)cc2)c1 [Example 49, N-{4-[(6,7-Dimethoxy-4-quinolyl)oxy]phenyl}-N′-[(1S)-1-(3-methoxyphenyl)ethyl]urea] | 45.4 | 2 (when the value was 10 or more)
5 | COc1cccc([C@@H](C)NC(=O)Nc2ccc(Oc3ccnc4cc(OC)c(OC)cc34)cc2)c1 [Example 50, N-{4-[(6,7-Dimethoxy-4-quinolyl)oxy]phenyl}-N′-[(1R)-1-(3-methoxyphenyl)ethyl]urea] | 28.3 | 0 (KDR phosphorylation 50% inhibitory concentration [μM]/c-fms phosphorylation 50% inhibitory concentration [μM] was less than 5)

Now from value to compound, other results behind:

Row | IC50 [nM] | SMILES | Selection ratio (KDR phosphorylation IC50 / c-fms phosphorylation IC50)
6 | < 1 | COc1cc2nccc(Oc3ccc(NC(=O)N[C@H](C)c4ccc(F)cc4)cc3)c2cc1OC [Example 3, N-{4-[(6,7-Dimethoxy-4-quinolyl)oxy]phenyl}-N′-[(1R)-1-(4-fluorophenyl)ethyl]urea] | 0 (KDR phosphorylation 50% inhibitory concentration [μM]/c-fms phosphorylation 50% inhibitory concentration [μM] was less than 5)
7 | 310 | COc1cc2nccc(Oc3ccc(NC(=O)N[C@@H](C)c4ccc([N+](=O)[O-])cc4)cc3)c2cc1OC [Example 35, N-{4-[(6,7-Dimethoxy-4-quinolyl)oxy]phenyl}-N′-[(1S)-1-(4-nitrophenyl)ethyl]urea] | 2 (when the value was 10 or more)
8 | 134 | COc1cc2nccc(Oc3ccc(NC(=O)N[C@H](C)c4ccc([N+](=O)[O-])cc4)cc3)c2cc1OC [Example 36, N-{4-[(6,7-Dimethoxy-4-quinolyl)oxy]phenyl}-N′-[(1R)-1-(4-nitrophenyl)ethyl]urea] | 0 (KDR phosphorylation 50% inhibitory concentration [μM]/c-fms phosphorylation 50% inhibitory concentration [μM] was less than 5)
9 | 18.8 | COc1cc2nccc(Oc3ccc(NC(=O)N[C@@H](C)c4ccc(C)cc4)cc3)c2cc1OC [Example 41, N-{4-[(6,7-Dimethoxy-4-quinolyl)oxy]phenyl}-N′-[(1S)-1-(4-methylphenyl)ethyl]urea] | 1 (when the value was 5 or more)
10 | 16.6 | COc1cc2nccc(Oc3ccc(NC(=O)N[C@H](C)c4ccc(C)cc4)cc3)c2cc1OC [Example 42, N-{4-[(6,7-Dimethoxy-4-quinolyl)oxy]phenyl}-N′-[(1R)-1-(4-methylphenyl)ethyl]urea] | 0 (KDR phosphorylation 50% inhibitory concentration [μM]/c-fms phosphorylation 50% inhibitory concentration [μM] was less than 5)
11 | 310 | COc1cc2nccc(Oc3ccc(NC(=O)N[C@@H](C)c4ccc(Cl)cc4)cc3)c2cc1OC [Example 47, N-[(1S)-1-(4-Chlorophenyl)ethyl]-N′-{4-[(6,7-dimethoxy-4-quinolyl)oxy]phenyl}urea] | 3 (when the value was 50 or more)
12 | 2.7 | COc1cc2nccc(Oc3ccc(NC(=O)N[C@H](C)c4ccc(Cl)cc4)cc3)c2cc1OC [Example 48, N-[(1R)-1-(4-Chlorophenyl)ethyl]-N′-{4-[(6,7-dimethoxy-4-quinolyl)oxy]phenyl}urea] | 0 (KDR phosphorylation 50% inhibitory concentration [μM]/c-fms phosphorylation 50% inhibitory concentration [μM] was less than 5)
